Measured values taken from patent US8642774B2, “Compounds” (Boehringer Ingelheim International GmbH, priority 2011, dated 2014).
pEC50: −log10 of the molar value.

Each molecule was assayed against T1, human recombinant mGluR5 (Homo sapiens, UniProt P41594) (assay: positive modulation of mGluR5, calcium based FLIPR assay). Settings: EC50 of the modulation; HEK 293 cell line expressing human recombinant mGluR5; peak height of Ca fluorescence signal after glutamate at approx. 5% basal stimulation; read-out: EC50.
T1 construct: expressed in transfected cells; host or cells: HEK 293 cell line, cultured with tetracycline, hygromycin and geneticin; tetracycline is withdrawn 3-7 days before the assay
T1 sequence (P41594 21-1212): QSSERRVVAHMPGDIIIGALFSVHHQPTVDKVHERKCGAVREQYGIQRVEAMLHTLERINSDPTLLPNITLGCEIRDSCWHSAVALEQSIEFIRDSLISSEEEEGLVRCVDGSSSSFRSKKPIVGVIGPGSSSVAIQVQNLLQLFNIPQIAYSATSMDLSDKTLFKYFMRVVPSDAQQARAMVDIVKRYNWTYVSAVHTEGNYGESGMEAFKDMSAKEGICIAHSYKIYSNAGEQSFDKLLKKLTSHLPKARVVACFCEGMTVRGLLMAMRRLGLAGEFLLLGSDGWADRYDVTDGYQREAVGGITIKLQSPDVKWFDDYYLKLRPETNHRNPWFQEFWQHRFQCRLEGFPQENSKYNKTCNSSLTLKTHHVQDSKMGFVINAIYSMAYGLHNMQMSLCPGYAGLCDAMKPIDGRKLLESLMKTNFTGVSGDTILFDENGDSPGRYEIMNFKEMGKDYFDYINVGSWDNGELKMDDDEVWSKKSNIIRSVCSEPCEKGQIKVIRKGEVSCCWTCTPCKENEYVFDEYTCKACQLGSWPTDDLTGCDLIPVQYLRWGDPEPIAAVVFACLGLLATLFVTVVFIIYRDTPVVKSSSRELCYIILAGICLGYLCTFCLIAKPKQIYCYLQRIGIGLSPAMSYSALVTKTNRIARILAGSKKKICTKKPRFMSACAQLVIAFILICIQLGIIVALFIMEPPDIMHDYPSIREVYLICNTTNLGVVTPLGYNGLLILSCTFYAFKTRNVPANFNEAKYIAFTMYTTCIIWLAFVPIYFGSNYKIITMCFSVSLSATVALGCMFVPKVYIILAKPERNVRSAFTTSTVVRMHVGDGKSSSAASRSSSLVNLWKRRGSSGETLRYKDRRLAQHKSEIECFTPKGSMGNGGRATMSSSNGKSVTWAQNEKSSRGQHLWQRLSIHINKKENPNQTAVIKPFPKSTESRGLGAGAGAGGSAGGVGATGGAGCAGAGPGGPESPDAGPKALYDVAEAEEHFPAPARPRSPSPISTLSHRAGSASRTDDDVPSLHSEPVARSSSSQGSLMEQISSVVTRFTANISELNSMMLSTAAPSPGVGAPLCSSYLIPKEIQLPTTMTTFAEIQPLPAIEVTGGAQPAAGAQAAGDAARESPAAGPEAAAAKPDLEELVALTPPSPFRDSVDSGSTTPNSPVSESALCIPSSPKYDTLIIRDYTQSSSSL
Format: cell-based
Description: The positive modulation of mGluR5 is measured in a HEK 293 cell line expressing human recombinant mGluR5 and is detected with calcium based FLIPR assay. The cells are cultured with DMEM supplemented with 10% FCS, 2 μg/mL tetracycline, 100 μg/mL hygromycin and 500 μg/mL gneticin. The cell culture media is exchanged for tetracycline-free cell culture media 3-7 days before the assay. One day before the assay the cell culture medium is exchanged to DMEM without glutamine and phenol red and supplemented with 10% FCS, 100 μg/mL hygromycin and 500 μg/mL geneticin. On the assay day, the medium of the subconfluent cultures is removed and the cells are detached by addition of 2.5 ml EDTA (0.02%) per 175 cm2 culture flask for 1 minute. The cells are resuspend in Ringer solution (140 mM NaCl, 5 mM KCl, 2.5 mM CaCl2, 1.5 mM MgCl2, 5 mM Glucose, 10 mM Hepes; adjusted to pH 7.4 with NaOH), pooled and Ringer solution added to adjust the volume to 50 mL. The cell suspension is centrifuged for 5 min at 1500 U/min (425 g). The supernatant is removed and the cells washed a second time with 50 ml fresh Ringer solution and centrifuged again as before. The supernatant is again removed and the pellet resuspended in Ringer solution to 1,000,000 cells/ml (1×10^6 cells/mL). The cells are plated onto BD BioCoat Poly-D-Lysine 384 well plates (20.000 cells/well; 20 μl/well). The lid covered plates are then incubated until use at 37° C./10% CO2. For dye loading, 20 μl of Calcium-4 assay kit solution (prepared according to the manufacturer's description in Ringer solution) are added to the cells and the plates are incubated for 80 min 37° C. and then 10 min at room temperature. • Controls, Compound dilution and assay execution: • Each assay plate contained wells with “high” and “low” controls:
Low controls 1% DMSO/ringer solution+basal glutamate activation (defined as 100% CTL).
High controls 10 μM CDPPB+basal glutamate activation (defined as 200% CTL).
Test compounds are dissolved and diluted in DMSO to 100-fold the desired concentrations. In a second step, the compounds are diluted in Ringer solution such that the compounds are 4-fold more concentrated than the desired final assay concentration. The final DMSO concentration was 1%.
20 μl of each compound solution are then transferred to the assay plate and the Ca2+ kinetic is measured to determine any intrinsic compound activity. After 5 min incubation in the FLIPR device, the second stimulation with 20 μl of glutamate in Ringer solution (glutamate concentration adjusted to approximately 5% basal stimulation of the maximal possible glutamate effect) is added and the kinetic Ca2+ response of the wells was measured for the modulation effect.
The peak height of the Ca release related fluorescence signal (9-66) is used for the EC50. The EC50 of the modulation is calculated over a nonlinear regression with GraphPad Prism (Table 1).

Structure (SMILES)	pEC50
Nc1nc2c(s1)CCN(C(=O)Cn1nc(-c3ccc(F)cc3)nc1-c1ccc(F)cc1)CC2 [Example 7.03.013.]	6.85
CC1CN(c2ccccn2)CCN1C(=O)Cn1nc(-c2ccc(F)cc2)nc1-c1ccc(F)cc1 (stereo not drawn) [Example 7.03.014.]	6.20
N#Cc1cccc(N2CCN(C(=O)Cn3nc(-c4ccc(F)cc4)nc3-c3ccc(F)cc3)CC2=O)c1 [Example 7.03.015.]	6.52
O=C(Cn1nc(-c2ccc(F)cc2)nc1-c1ccc(F)cc1)N1CCN(c2cc(F)ccn2)C(=O)C1 [Example 7.03.016.]	7.00
Nc1nc2c(o1)CCN(C(=O)Cn1nc(-c3ccc(F)cc3)nc1-c1ccc(F)cc1)CC2 [Example 7.03.019.]	6.36
O=C(Cn1nc(-c2ccc(F)cc2)nc1-c1ccc(F)cc1)N1Cc2cccnc2C1 [Example 7.03.020.]	6.20
COc1cccc(C2=CCN(C(=O)Cn3nc(-c4ccc(F)cc4)nc3-c3ccc(F)cc3)CC2)c1 [Example 7.03.021.]	6.64
O=C(Cn1nc(-c2ccc(F)cc2)nc1-c1ccc(F)cc1)N1CC=C(c2ncccn2)CC1 [Example 7.03.022.]	7.25
COc1ccc2c(n1)CCN(C(=O)Cn1nc(-c3ccc(F)cc3)nc1-c1ccc(F)cc1)CC2 [Example 7.03.023.]	6.73
O=C(Cn1nc(-c2ccc(F)cc2)nc1-c1ccc(F)cc1)N1CC=C(c2ccccn2)CC1 [Example 7.03.024.]	6.97
COc1cc(C2=CCN(C(=O)Cn3nc(-c4ccc(F)cc4)nc3-c3ccc(F)cc3)CC2)ncn1 [Example 7.03.025.]	7.01
COc1cc(C2CCN(C(=O)Cn3nc(-c4ccc(F)cc4)nc3-c3ccc(F)cc3)CC2)ncn1 [Example 7.03.026.]	6.01
O=C(Cn1nc(-c2ccc(F)cc2)nc1-c1ccc(F)cc1)N1CCC(c2ccccn2)CC1 [Example 7.03.027.]	6.13
O=C(Cn1nc(-c2ccc(F)cc2)nc1-c1ccc(F)cc1)N1CCc2ccc(Cl)nc2CC1 [Example 7.03.028.]	6.93
CCc1nc2c(s1)CCN(C(=O)Cn1nc(-c3ccc(F)cc3)nc1-c1ccc(F)cc1)CC2 [Example 7.03.030.]	7.43
O=C(Cn1nc(-c2ccc(F)cc2)nc1-c1ccc(F)cc1)N1CCc2nc(C3CCOCC3)sc2CC1 [Example 7.03.031.]	5.75
O=C(Cn1nc(-c2ccc(F)cc2)nc1-c1ccc(F)cc1)N1CCc2nc(C3CCCCC3)sc2CC1 [Example 7.03.032.]	6.06
CC(C)c1nnc(C2CCN(C(=O)Cn3nc(-c4ccc(F)cc4)nc3-c3ccc(F)cc3)CC2)o1 [Example 7.03.033.]	6.32
O=C(Cn1nc(-c2ccc(F)cc2)nc1-c1ccc(F)cc1)N1CCC(c2nnco2)CC1 [Example 7.03.034.]	6.04

Structure (SMILES)	pEC50
Cc1cnc(C2CCN(C(=O)Cn3nc(-c4ccc(F)cc4)nc3-c3ccc(F)cc3)CC2)o1 [Example 7.03.035.]	6.77
Cc1cnc(C2=CCN(C(=O)Cn3nc(-c4ccc(F)cc4)nc3-c3ccc(F)cc3)CC2)o1 [Example 7.03.036.]	7.31
Cc1nc2c(s1)C(C)CN(C(=O)Cn1nc(-c3ccc(F)cc3)nc1-c1ccc(F)cc1)CC2 (stereo not drawn) [Example 7.03.037.]	6.51
O=C(Cn1nc(-c2ccc(F)cc2)nc1-c1ccc(F)cc1)N1CCC(c2ncco2)CC1 [Example 7.03.038.]	7.12
COc1nc2c(s1)CCN(C(=O)Cn1nc(-c3ccc(F)cc3)nc1-c1ccc(F)cc1)CC2 [Example 7.03.039.]	7.30
O=C(Cn1nc(-c2ccc(F)cc2)nc1-c1ccc(F)cc1)N1CC=C(c2ncco2)CC1 [Example 7.03.040.]	7.27
COc1cccc(N2CCN(C(=O)Cn3nc(-c4ccc(F)cc4)nc3-c3ccc(F)cc3)CC2=O)n1 [Example 7.03.041.]	6.79
O=C(Cn1nc(-c2ccc(F)cc2)nc1-c1ccc(F)cc1)N1CCN(C2=NCCO2)CC1 [Example 7.03.042.]	6.05
CC(C)c1nnc(N2CCN(C(=O)Cn3nc(-c4ccc(F)cc4)nc3-c3ccc(F)cc3)CC2)o1 [Example 7.03.043.]	6.86
CCc1nnc(N2CCN(C(=O)Cn3nc(-c4ccc(F)cc4)nc3-c3ccc(F)cc3)CC2)o1 [Example 7.03.044.]	7.02
Cc1nnc(N2CCN(C(=O)Cn3nc(-c4ccc(F)cc4)nc3-c3ccc(F)cc3)CC2)o1 [Example 7.03.045.]	6.81
O=C(Cn1nc(-c2ccc(F)cc2)nc1-c1ccc(F)cc1)N1CCN(C2=NCCS2)CC1 [Example 7.03.046.]	6.45
O=C(Cn1nc(-c2ccc(F)cc2)nc1-c1ccc(F)cc1)N1CCN(c2nc3ccccc3o2)CC1 [Example 7.03.047.]	6.85
O=C(Cn1nc(-c2ccc(F)cc2)nc1-c1ccc(F)cc1)N1CCN(c2nccs2)CC1 [Example 7.03.048.]	7.06
Nc1nc2c(s1)CCN(C(=O)Cn1nc(-c3ccccc3)nc1-c1ccccc1)CC2 [Example 7.03.049.]	5.84
COc1ccc(-c2nc(-c3ccccc3)n(CC(=O)N3Cc4nc(C)sc4C3)n2)cc1 [Example 7.03.050.]	6.47
COc1ccc(-c2nc(-c3ccccc3)n(CC(=O)N3CCc4nc(N)sc4CC3)n2)cc1 [Example 7.03.051.]	6.55
COc1ccc(-c2nc(-c3ccccc3)n(CC(=O)N3CCc4nc(C)oc4C3)n2)cc1 [Example 7.03.052.]	6.49
COc1ccc(-c2nc(-c3ccccc3)n(CC(=O)N3CCN(c4ccccn4)C(=O)C3)n2)cc1 [Example 7.03.053.]	6.62

Structure (SMILES)	pEC50
COc1ccc(-c2nc(-c3ccccc3)n(CC(=O)N3CCc4nc(C)sc4CC3)n2)cc1 [Example 7.03.054.]	7.01
COc1ccc(-c2nc(-c3ccc(F)cc3)n(CC(=O)N3CCc4nc(N)sc4CC3)n2)cc1 [Example 7.03.055.]	7.00
COc1ccc(-c2nc(-c3ccc(F)cc3)n(CC(=O)N3CCc4nc(C)sc4CC3)n2)cc1 [Example 7.03.056.]	7.20
COc1ccc(-c2nc(-c3ccc(F)cc3)nn2CC(=O)N2CCc3nc(N)sc3CC2)cc1 [Example 7.03.057.]	6.73
COc1ccc(-c2nc(-c3ccc(F)cc3)nn2CC(=O)N2CCc3nc(C)sc3CC2)cc1 [Example 7.03.058.]	6.93
Cc1nc2c(o1)CN(C(=O)Cn1nc(-c3ccc(F)c(C)c3)nc1C1CCCCC1)CC2 [Example 7.03.059.]	6.27
Cc1nc2c(s1)CN(C(=O)Cn1nc(-c3ccc(F)c(C)c3)nc1C1CCCCC1)C2 [Example 7.03.060.]	6.59
Cc1cc(-c2nc(C3CCCCC3)n(CC(=O)N3CCc4nc(N)sc4CC3)n2)ccc1F [Example 7.03.061.]	6.43
Cc1nc2c(s1)CCN(C(=O)Cn1nc(-c3ccc(F)c(C)c3)nc1C1CCCCC1)CC2 [Example 7.03.062.]	6.81
Cc1nc2c(s1)CCN(C(=O)Cn1nc(-c3ccc(F)c(C)c3)nc1-c1ccccc1)CC2 [Example 7.03.063.]	7.22
Cc1nc2c(o1)CN(C(=O)Cn1nc(-c3ccc(F)c(C)c3)nc1-c1ccccc1)CC2 [Example 7.03.064.]	7.07
Cc1cc(-c2nc(-c3ccccc3)n(CC(=O)N3CCc4nc(N)sc4CC3)n2)ccc1F [Example 7.03.065.]	7.02
Cc1nc2c(s1)CN(C(=O)Cn1nc(-c3ccc(F)c(C)c3)nc1-c1ccccc1)C2 [Example 7.03.066.]	7.15
COc1cc(-c2nc(-c3ccc(F)cc3)nn2CC(=O)N2CCc3nc(C)sc3CC2)ccc1F [Example 7.03.069.]	6.24
CCCc1nc(-c2ccc(F)c(C)c2)nn1CC(=O)N1CCc2nc(C)sc2CC1 [Example 7.03.070.]	6.34
CCCc1nc(-c2ccc(F)c(C)c2)nn1CC(=O)N1Cc2nc(C)sc2C1 [Example 7.03.071.]	5.93
CCCc1nc(-c2ccc(F)c(C)c2)nn1CC(=O)N1CCc2nc(N)sc2CC1 [Example 7.03.072.]	6.39
Cc1cc(-c2nc(C(C)C)n(CC(=O)N3CCc4nc(N)sc4CC3)n2)ccc1F [Example 7.03.073.]	5.93
Cc1nc2c(s1)CCN(C(=O)Cn1nc(-c3ccc(F)c(C)c3)nc1C(C)C)CC2 [Example 7.03.074.]	6.49
